From US20180071298A1, “METHODS FOR TREATING ALZHEIMER'S DISEASE” (Reviva Pharmaceuticals, Inc., priority 2015, published 2018)
pKi: −log10 of the molar value.

Legend:
[1] = molecular target: Human Cortex or Human recombinant 5-HT2A (Homo sapiens, UniProt P28223); assay: Serotonin 5HT2A radioligand binding assay; conditions: [3H]-Ketanserin
Human recombinant 5-HT1A = molecular target: T1, Human recombinant 5-HT1A (Homo sapiens, UniProt P08908); assay: Serotonin 5HT1A radioligand binding assay; conditions: [3H]-8-OH-DPAT
T1 construct: expressed in transfected cells
T1 sequence (P08908 1-422): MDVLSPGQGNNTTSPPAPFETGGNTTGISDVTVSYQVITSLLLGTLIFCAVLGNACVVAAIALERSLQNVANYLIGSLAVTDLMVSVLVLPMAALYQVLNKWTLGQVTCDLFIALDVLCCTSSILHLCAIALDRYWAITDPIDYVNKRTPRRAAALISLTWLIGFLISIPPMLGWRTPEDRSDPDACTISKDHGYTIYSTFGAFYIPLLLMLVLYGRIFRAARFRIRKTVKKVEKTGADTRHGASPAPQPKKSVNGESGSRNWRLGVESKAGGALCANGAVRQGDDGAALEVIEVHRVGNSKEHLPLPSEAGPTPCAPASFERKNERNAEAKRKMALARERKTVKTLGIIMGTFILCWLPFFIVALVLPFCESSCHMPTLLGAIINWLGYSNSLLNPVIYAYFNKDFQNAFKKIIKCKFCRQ
Text: Serotonin, 5HT1A Radioligand Binding Assay
Receptor Source: Human recombinant 5-HT1A expressed mammalian cells
Radioligand: [^3H]-8-OH-DPAT (221 Ci/mmol)
Control Compound: 8-OH-DPAT

Chain of Human Cortex or Human recombinant 5-HT2A (P28223 whole entry): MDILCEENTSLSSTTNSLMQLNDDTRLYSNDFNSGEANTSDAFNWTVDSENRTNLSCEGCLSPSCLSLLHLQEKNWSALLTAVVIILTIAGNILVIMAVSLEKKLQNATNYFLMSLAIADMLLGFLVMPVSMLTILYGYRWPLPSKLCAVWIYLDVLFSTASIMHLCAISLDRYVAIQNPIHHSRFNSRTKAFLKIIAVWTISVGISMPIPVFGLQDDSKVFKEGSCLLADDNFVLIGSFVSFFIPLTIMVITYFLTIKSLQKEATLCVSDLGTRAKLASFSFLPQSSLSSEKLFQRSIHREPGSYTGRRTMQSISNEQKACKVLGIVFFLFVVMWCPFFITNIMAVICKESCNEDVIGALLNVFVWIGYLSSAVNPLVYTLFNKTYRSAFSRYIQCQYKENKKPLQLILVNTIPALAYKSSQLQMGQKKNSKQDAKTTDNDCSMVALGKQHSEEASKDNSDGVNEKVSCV

Q: O=C1COc2ccc(OCCCCN3CCN(c4cccc(Cl)c4Cl)CC3)cc2N1 [Compound A, 6-(4-(4-(2,3-dichlorophenyl)piperazin-1-yl)butoxy)-2H-benzo[b][1,4]oxazin-3(-4H)-one] was tested. Which “Ki, Serotonin 5-HT2A” value [1] did it give?
A: 111 nM

Q: What about the pKi (Human recombinant 5-HT1A) of the same molecule?
A: 9.19
